Reference: patent publication EP2488179B1, “NRF2 INHIBITORS AND USE THEREOF” (priority 2009, dated 2011)

Experiments:
Type in all cases: cell-based
HO-1 protein = assay: Western blotting of HO-1 protein; conditions: FIG. 3b
Experimental: (§1) In order to identify whether the 3-[(4-biphenylyloxy)methyl]piperidine hydrochloride, the selected Nrf2 inhibitor, acted on the ARE site to inhibit the binding of the Nrf2 transcription factor, and thereby inhibiting the expression of antioxidant enzymes, protein expression was analyzed. The increase in the amount of HO-1 protein by the tBHQ treatment was assayed after treating cells with the 3-[(4-biphenylyloxy)methyl]piperidine hydrochloride followed by treatment with tBHQ with a 2-hour gap between the treatments. Cytoplasmic fractions were obtained from the cells treated as described above using a method commonly used in the art. The fractions were separated using a 10% gradient SDS-PAGE, and then transferred to a nitrocellulose membrane (BioRad, Hercules, CA, USA). The membrane was blocked with a 5% skim milk and screened with an anti-Nrf2 antibody (Abcam, USA) and a HO-1 antibody (Oncogene Research Products, USA). The result was visualized by a reaction with a horseradish peroxidase-conjugated anti-rat IgG antibody (Santa Cruz Biotechnology, Inc.) using a thermostat and then with an ECL system (GE, USA).

[1] = test system: U87-MG brain cancer cells; assay: CCK-8 viability assay, alone and combined with Doxorubicin; conditions: 48 hours
Experimental: (§2) H1299 lung cancer cells, SKOV3 ovarian cancer cells, U87-MG brain cancer cells, and HT29 colorectal cancer cells were respectively inoculated into a 96-well plate including a Rosewell Park Memorial Institute medium 1640 (RPMI 1640) supplemented with 10% FBS, 100 µg/ml of streptomycin, and 100 unit/ml of penicillin. Each well was treated with 0.2, 2, 5, and 10 µM 3-[(4-biphenylyloxy)methyl]piperidine hydrochloride, and then treated with 0.15 µM Doxorubicin, an anti-cancer agent after 2 hours therefrom. The wells were cultured under 5% CO2 conditions at 37°C for 48 hours, and the killing effect of the cancer cells was assayed using a CCK-8 viability assay kit (Dojindo, Japan).

[2] = test system: SKOV3 ovarian cancer cells; assay: as above; conditions: 48 hours
Experimental: as §2

[3] = test system: HT29 colorectal cancer cells; assay: as above; conditions: 48 hours
Experimental: as §2

H1299 lung cancer cells [4] = assay: as above; conditions: 48 hours
Experimental: as §2

[5] = test system: U87-MG brain cancer cells; assay: Clonogenic assay with radiation (methylene blue staining); conditions: 1, 5, and 10 µM with 2, 4, and 6 Gy radiation, 7 days
Experimental: (§3) H1299 lung cancer cells, U87-MG brain cancer cells, or HT29 colorectal cancer cells were respectively inoculated into a 6 cm plate including a RPMI 1640 supplemented with 10% FBS, 100 µg/ml of streptomycin, and 100 unit/ml of penicillin. The plate was treated with the selected 1, 5, and 10 µM 3-[(4-biphenylyloxy)methyl]piperidine hydrochloride, the Nrf2 inhibitor, exposed to 2, 4, and 6 Gy -radiation, and cultured under 5% CO2 conditions at 37°C for 7 days. The cultured cells were washed with a phosphate buffered saline (PBS) and stained with a 1% methylene blue in 100% methanol. Then, the number of alive cells that formed colonies was calculated three times.

[6] = test system: HT29 colorectal cancer cells; assay: as above; conditions: 1, 5, and 10 µM with 2, 4, and 6 Gy radiation, 7 days
Experimental: as §3

H1299 lung cancer cells [7] = assay: as above; conditions: 1, 5, and 10 µM with 2, 4, and 6 Gy radiation, 7 days
Experimental: as §3

Nrf2 protein = assay: Western blotting of Nrf2 protein; conditions: FIG. 3b
Experimental: as §1

HO-1 mRNA = assay: Semi-quantitative RT-PCR of HO-1 mRNA; conditions: inhibitor, then tBHQ after 2 hours; GAPDH control; FIG. 3a
Experimental: After 2 hours from the treatment of 3-[(4-biphenylyloxy)methyl]piperidine chloride, the selected Nrf2 inhibitor, RNA expression was assayed in order to measure the increase in the amount of heme oxygenase (HO)-1 mRNA by tBHQ treatment. mRNA was isolated from the cells treated with 3-[(4-biphenylyloxy)methyl]piperidine hydrochloride, using an RNA extraction kit (Qiagen, USA) and identified using a spectrometer (Amersham Biosciences, USA). cDNA was obtained from the mRNA using a reverse transcriptase (Promega, USA), and PCR was conducted using the cDNA as a template and primers having sequences SEQ ID NOS: 11 and 12 to measure the expression level of HO-1 mRNA. The PCR was performed with 25 cycles, each of which consisting of a denaturation at 94°C for 30 seconds, an annealing at 55°C for 30 seconds, and an extension at 72°C for 1 minute. The DNA obtained using the PCR was electrophoresed in a 1.5% agarose gel, stained using ethidium bromide, and observed under UV rays. […] It is believed that the 3-[(4-biphenylyloxy)methyl]piperidine hydrochloride that is selected as the Nrf2 inhibitor using the ARE-pGL3 luciferase plasmid in Example 1 acted on the ARE site to inhibit the activity of the Nrf2 transcription factor.

Nrf2 = assay: ARE-pGL3 luciferase reporter assay for screening Nrf2 inhibitors in transformed HEK293 cells
Experimental: Oligomers including an ARE site (SEQ ID NOS: 1 to 10, Bioneer Corp., Ltd., Korea) were synthesized and treated with Kpnl and M1 ul restriction enzymes. The oligomers were inserted into a pGL3 luciferase plasmid (Promega, USA) treated with the Kpnl and M1ul restriction enzymes using a ligase (Promega, USA) to prepare ARE-pGL3 luciferase. […] Besides the plasmid, pcDNA3.1 (Invitrogen, USA) plasmid including a Neo gene was used together as a selection plasmid to select a transformed cell using G418 (neomycin) as a selectable factor.
HEK293 cells were purchased from the American Type Culture Collection (ATCC) and cultured in a Dulbecco's modified Eagle's medium (DMEM) supplemented with 10% fetal bovine serum (FBS), 100 µg/ml of streptomycin, and 100 units/ml of penicillin under 5% CO2 conditions at 37°C. A transformation by which the ARE-pGL3 luciferase was introduced into the HEK293cell was performed using Lipofectamine 2000™ (Invitrogen, Calsbad, CA, USA). Activity of luciferase was measured using a Luciferase Assay Kit (Promega, Medison, WI, USA). […] Based on the result, ARE-pGL3 luciferase plasmid including 4(1/2)xARE-2 having a sequence of SEQ ID NO: 10 was used as a plasmid for screening an Nrf2 inhibitor.
After the transformation performed according to Example 1-(2), transformed HEK293 cells that expressed both ARE-pGL3 luciferase and pcDNA3.1 were selected using a culture medium including G418 (600µg/ml) and used as a cell line for screening the Nrf2 inhibitor. 20,000 cells were inoculated into each well of a 96-well plate and cultured for 24 hours under the conditions described above in Example 1-(2). […] Transformed cells that stably expressed the ARE-pGL3 luciferase plasmid were selected, and 8,000 candidate substances, low molecular weight single compounds were used to screen the Nrf2 inhibitor. Each candidate substance was added to each well to a final concentration of 10 µM. The wells were incubated for 18 hours, and the luciferase activity was measured using a Victor 3 Luminometer (Perkin Elmer, USA).

HEK293 cells = assay: CCK-8 viability assay (absorbance at 450 nm) on the screening cells; conditions: CCK-8, absorbance at 450 nm, FIG. 2b
Experimental: In addition, in order to confirm that the inhibition of the luciferase activity is not caused by the death of a cell but by the Nrf2 inhibitor, absorbance was measured using a CCK-8 viability assay kit (Dojindo, Japan) and a spectrometer (Lab Systems, USA) at 450 nm.

[8] = test system: MB231 breast cancer cells; assay: FACS of propidium iodide stained cells after radiation; conditions: 1 µM with 5 Gy radiation, 48 hours; compared to 5Gy radiation therapy
Experimental: (§4) In order to measure whether a treatment of MB231 breast cancer cells and SKOV3 ovarian cancer cells with a combination of 3-[(4-biphenylyloxy)methyl]piperidine chloride, the selected Nrf2 inhibitor, and radiation therapy increase or synergistically increase the killing of cancer cells by apoptosis, the cancer cells were treated with 1 µM 3-[(4-biphenylyloxy)methyl]piperidine hydrochloride, exposed to 5 Gy radiation, and cultured under 5% CO2 conditions at 37°C for 48 hours. The cultured cells were collected and stained with propidium iodide, and cell cycles were analyzed using a fluorescence activated cell sorting (FACS).

[9] = test system: SKOV3 ovarian cancer cells; assay: as above; conditions: 1 µM with 5 Gy radiation, 48 hours; compared to 5Gy radiation therapy
Experimental: as §4

[10] = inhibitor then tBHQ with a 2-hour gap, cytoplasmic fractions, concentration-dependent
[11] = 0.2, 2, 5, and 10 µM, then 0.15 µM Doxorubicin after 2 hours, compared to Doxorubicin alone
[12] = compound alone, 0.2, 2, 5, and 10 µM

Cl.c1ccc(-c2ccc(OCC3CCCNC3)cc2)cc1 (stereo not shown) [3-[(4-biphenylyloxy)methyl]piperidine hydrochloride]
amount of HO-1 protein (HO-1 protein; [10]): reduced
killing effect of a combination with Doxorubicin [1, 11]: significantly increased in a concentration-dependent manner
effect on the viability [1, 12]: negligible
killing effect of a combination with Doxorubicin [2, 11]: significantly increased in a concentration-dependent manner
effect on the viability [2, 12]: negligible
killing effect of a combination with Doxorubicin [3, 11]: significantly increased in a concentration-dependent manner
effect on the viability [3, 12]: negligible
killing effect of a combination with Doxorubicin (H1299 lung cancer cells [4]; [11]): significantly increased in a concentration-dependent manner
effect on the viability (H1299 lung cancer cells [4]; [12]): negligible
sensitivity of cells to radiation [5]: increased or synergistically increased the sensitivity of cells to radiation
sensitivity of cells to radiation [6]: increased or synergistically increased the sensitivity of cells to radiation
sensitivity of cells to radiation (H1299 lung cancer cells [7]): increased or synergistically increased the sensitivity of cells to radiation
amount of Nrf2 protein (Nrf2 protein; [10]): reduced
expression of HO-1 mRNA (HO-1 mRNA): inhibited in a dose-dependent manner
activity of the luciferase (Nrf2; concentration dependence, FIG. 2a): inhibited the activity of the luciferase in a concentration-dependent manner
activity of the luciferase (Nrf2; screening, final concentration of 10 µM, incubated for 18 hours): inhibits the activity of the luciferase
cell toxicity (HEK293 cells): does not have cell toxicity
killing effect of the combination with radiation [8]: 4.3 times
killing effect of the combination with radiation [9]: twice

CC(C)(C)c1cc(O)ccc1O [tBHQ, tertiary butylhydroquinone, reference compound]
amount of HO-1 protein (HO-1 protein; treatment with tBHQ): increased
amount of Nrf2 protein (Nrf2 protein; treatment with tBHQ): increased
activity of the luciferase (Nrf2; tBHQ added to the culture, activates the ARE): increased twice
